Reference: ChEMBL document CHEMBL3046553, “Bioanalytical method development and validation for simultaneous estimation of (R)- and (S)-isomers of S002-333: a potent novel anti-thrombotic agent using LCMS/MS” (Med Chem Res, 2011)

Columns and labels:
[1] = Clearance in New Zealand Oryctolagus cuniculus (rabbit) at 2 mg/kg, iv; type: ADME, organism-based; design: dose 2 mg/kg, route intravenous; details: in vivo
[2] = tested on: Plasma; test: Drug recovery in New Zealand Oryctolagus cuniculus (rabbit) plasma at 1.56 to 400 ng/ml; type: ADME, cell-free
[3] = Half life in New Zealand Oryctolagus cuniculus (rabbit) at 2 mg/kg, iv; type: ADME, organism-based; design: dose 2 mg/kg, route intravenous; details: in vivo
[4] = AUC (0 to infinity) in New Zealand Oryctolagus cuniculus (rabbit) at 2 mg/kg, iv; type: ADME, organism-based; design: time infinity, dose 2 mg/kg, route intravenous; details: plasma
[5] = Initial plasma concentration in New Zealand Oryctolagus cuniculus (rabbit) at 2 mg/kg, iv; type: ADME, organism-based; design: dose 2 mg/kg, route intravenous
[6] = Volume of distribution in New Zealand Oryctolagus cuniculus (rabbit) at 2 mg/kg, iv; type: ADME, organism-based; design: dose 2 mg/kg, route intravenous; details: in vivo

| SMILES | clearance [1] [mL/min/kg] | Drug recovery [2] [%] | half-life [3] [h] | AUC(0-inf) [4] [ng·h/mL] | C0 [5] [ng/mL] | Vd [6] [L/kg] |
| --- | --- | --- | --- | --- | --- | --- |
| COc1ccc(S(=O)(=O)N2Cc3[nH]c4ccccc4c3C[C@@H]2C(N)=O)cc1 | 64.7 | 53.21 | 3.84 | 568 | 288 | 22 |
| COc1ccc(S(=O)(=O)N2Cc3[nH]c4ccccc4c3C[C@H]2C(N)=O)cc1 [S007-1558 (S)] | 84.3 | 40.88 | 4.01 | 436 | 276 | 29.8 |
